The values that follow come from patent US9540343B2 (Gilead Sciences, Inc., priority 2011, dated 2017).

A short description of one data set: in vitro. The conditions noted are these: human, uninfected MT-4 cells, CC50 (nM), same protocol as Test A, CellTiter-Glo. The method, boiled down: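 Cytoprotection read-out: CellTiter-Glo chemiluminescence after 5 days at 37 °C of HIV-IIIb-infected MT-4 cells (m.o.i. 0.003) with compound in 10-point 3-fold dilutions, quadruplicate, 10% FBS. Cytotoxicity (CC50) measured identically without virus.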

A further data set has as its system HIV-IIIb. Briefly: Test A: Antiviral assay in MT4 cells. It counts as cell-based, HIV-1. As to conditions: Human immunodeficiency virus 1, IIIB, MT4, 120 h, read-out: % inhibition at 2 μM, percent inhibition of virus-induced cell killing, from dose response curve at 2 uM drug; MT-4 cells infected with HIV-IIIb, 5 days, CellTiter-Glo. A general note: Cellular ATP, detected with luciferase, serves as a proxy for viable cell number.

Some results are limits rather than exact numbers.

For `NC(=O)c1cc(-c2cccnc2[C@H](Cc2cc(F)cc(F)c2)NC(=O)Cn2nc3c(c2C(F)F)CC2CC32)ccc1F` (stereo partly drawn) [Example 160, 5-(2-((1S)-1-(2-(3-(difluoromethyl)-4,4-a,5,5a-tetrahydro-2H-cyclopropa[4,5]cyclopenta[1,2-c]pyrazol-2-yl)acetamido)-2-(3,5-difluorophenyl)ethyl)pyridin-3-yl)-2-fluorobenzamide], in the data set “in vitro”, the CC50 at 5 days is 29300 nM. Further, in the data set on HIV-IIIb, the inhibition at 2 µM turned out to be 45%.

`CC(C)(C)OC(=O)N1C[C@@H](Oc2ccccc2)C[C@H]1C(=O)N[C@@H](Cc1cc(F)cc(F)c1)c1ncccc1-c1ccc(F)c(C(N)=O)c1` [Example 161, (2S,4S)-tert-butyl 2-((S)-1-(3-(3-carbamoyl-4-fluorophenyl)pyridin-2-yl)-2-(3,5-difluorophenyl)ethylcarbamoyl)-4-phenoxypyrrolidine-1-carboxylate] had a CC50 at 5 days in the data set “in vitro” of 9310 nM. For the same compound, the inhibition at 2 µM in the data set on HIV-IIIb is 0%.

The compound `NC(=O)c1cc(-c2cccnc2[C@H](Cc2cc(F)cc(F)c2)NC(=O)COc2ccccc2)ccc1F` [Example 164, (S)-5-(2-(2-(3,5-difluorophenyl)-1-(2-phenoxyacetamido)ethyl)pyridin-3-yl)-2-fluorobenzamide] returned a CC50 at 5 days in “in vitro” of 29900 nM. The inhibition at 2 µM with HIV-IIIb was 2%.

For the compound `NC(=O)c1cc(-c2cccnc2[C@H](Cc2cc(F)cc(F)c2)NC(=O)[C@@H]2C[C@H](Oc3ccccc3)CN2)ccc1F` [Example 165, (2S,4S)—N—((S)-1-(3-(3-carbamoyl-4-fluorophenyl)pyridin-2-yl)-2-(3,5-difluorophenyl)ethyl)-4-phenoxypyrrolidine-2-carboxamide], the CC50 at 5 days in “in vitro” was found to be 52500 nM. In addition, the inhibition at 2 µM with HIV-IIIb was found to be 0%.

As to `NC(=O)c1cc(-c2cccnc2[C@H](Cc2cc(F)cc(F)c2)NC(=O)C2CCCN2Cc2ccccc2)ccc1F` (stereo partly drawn) [Example 166, 1-benzyl-N—((S)-1-(3-(3-carbamoyl-4-fluorophenyl)pyridin-2-yl)-2-(3,5-difluorophenyl)ethyl)pyrrolidine-2-carboxamide], in the data set “in vitro”, the half-maximal cytotoxic concentration (CC50) at 5 days came out at 6360 nM. In addition, the inhibition at 2 µM with HIV-IIIb stood at 0%.

With `NC(=O)c1cc(-c2cccnc2[C@H](Cc2cc(F)cc(F)c2)NC(=O)[C@@H]2CC(=O)CN2)ccc1F` [Example 167, (S)—N—((S)-1-(3-(3-carbamoyl-4-fluorophenyl)pyridin-2-yl)-2-(3,5-difluorophenyl)ethyl)-4-oxopyrrolidine-2-carboxamide], the CC50 at 5 days in the data set “in vitro” was over 53000 nM. Moreover, the inhibition at 2 µM in the data set with HIV-IIIb was 0%.

`NC(=O)c1cc(-c2cccnc2[C@H](Cc2cc(F)cc(F)c2)NC(=O)Cn2nc(C(F)(F)F)cc2C2CCCC2)ccc1F` [Example 168B, (S)-5-(2-(1-(2-(5-cyclopentyl-3-(trifluoromethyl)-1H-pyrazol-1-yl)acetamido)-2-(3,5-difluorophenyl)ethyl)pyridin-3-yl)-2-fluorobenzamide] returned a CC50 at 5 days in the data set “in vitro” of 11100 nM. Further, the inhibition at 2 µM with HIV-IIIb amounted to 21%.

`CCn1c(=O)c2c(n1CC(=O)N[C@@H](Cc1cc(F)cc(F)c1)c1ncccc1-c1ccc(F)c(C(N)=O)c1)CCCC2` [Example 170C, (S)-5-(2-(2-(3,5-difluorophenyl)-1-(2-(2-ethyl-3-oxo-2,3,4,5,6,7-hexahydro-1H-indazol-1-yl)acetamido)ethyl)pyridin-3-yl)-2-fluorobenzamide]: the half-maximal cytotoxic concentration (CC50) at 5 days in the data set “in vitro” was over 53200 nM. Moreover, the inhibition at 2 µM with HIV-IIIb was determined as 22%.

The compound `CC(C)(C)OC(=O)N1CCC[C@H]1C(=O)N[C@@H](Cc1cc(F)cc(F)c1)c1ncccc1-c1ccc(F)c(C(N)=O)c1` [Example 171, (S)-tert-butyl 2-((S)-1-(3-(3-carbamoyl-4-fluorophenyl)pyridin-2-yl)-2-(3,5-difluorophenyl)ethylcarbamoyl)pyrrolidine-1-carboxylate] came in with a CC50 at 5 days in “in vitro” of 11900 nM. In the data set with HIV-IIIb, the inhibition at 2 µM stood at 4%.

Consider `O=C(Cn1nc(C(F)F)c2c1C(F)(F)C1CC21)N[C@@H](Cc1cc(F)cc(F)c1)c1ncncc1-c1cnc2[nH]ccc2c1` (stereo partly drawn) [Example 172D, N—((S)-1-(5-(1H-pyrrolo[2,3-b]pyridin-5-yl)pyrimidin-4-yl)-2-(3,5-difluorophenyl)ethyl)-2-(3-(difluoromethyl)-5,5-difluoro-3b,4,4a,5-tetrahydro-1H-cyclopropa[3,4]cyclopenta[1,2-c]pyrazol-1-yl)acetamide], for which it took 22100 nM to reach half-maximal cytotoxicity in the data set “in vitro” (CC50 at 5 days). In addition, the inhibition at 2 µM in the data set with HIV-IIIb stood at 104%.

Take `NC(=O)c1cc(-c2cccnc2[C@H](Cc2cc(F)cc(F)c2)NC(=O)[C@@H]2CCCN2)ccc1F` [Example 175, (S)—N—((S)-1-(3-(3-carbamoyl-4-fluorophenyl)pyridin-2-yl)-2-(3,5-difluorophenyl)ethyl)pyrrolidine-2-carboxamide]: the cytotoxic concentration (CC50) at 5 days in “in vitro” was over 53000 nM. In addition, the inhibition at 2 µM with HIV-IIIb is 1%.

In the case of `O=C(Cn1nc(C(F)F)c2c1C(F)(F)C1CC21)N[C@@H](Cc1cc(F)cc(F)c1)c1ncncc1-c1cnc2[nH]ncc2c1` (stereo partly drawn) [Example 176C, N—((S)-1-(5-(1H-pyrazolo[3,4-b]pyridin-5-yl)pyrimidin-4-yl)-2-(3,5-difluorophenyl)ethyl)-2-(3-(difluoromethyl)-5,5-difluoro-3b,4,4a,5-tetrahydro-1H-cyclopropa[3,4]cyclopenta[1,2-c]pyrazol-1-yl)acetamide], half-maximal cytotoxicity in the data set “in vitro” (CC50 at 5 days) was put at 46500 nM. For the same compound, the inhibition at 2 µM with HIV-IIIb amounted to 59%.

In “in vitro”, `NC(=O)c1cc(-c2cccnc2[C@H](Cc2cc(F)cc(F)c2)NC(=O)[C@@H]2C[C@H](c3ccccc3)CN2)ccc1F` [Example 177, (2S,4R)—N—((S)-1-(3-(3-carbamoyl-4-fluorophenyl)pyridin-2-yl)-2-(3,5-difluorophenyl)ethyl)-4-phenylpyrrolidine-2-carboxamide] came in with a cytotoxic concentration (CC50) at 5 days of 51700 nM. The inhibition at 2 µM in the data set on HIV-IIIb stood at 0%.

As to `NC(=O)c1cc(-c2cccnc2[C@H](Cc2cc(F)cc(F)c2)NC(=O)[C@@H]2C[C@@H](O)CN2)ccc1F` [Example 178, (2S,4R)—N—((S)-1-(3-(3-carbamoyl-4-fluorophenyl)pyridin-2-yl)-2-(3,5-difluorophenyl)ethyl)-4-hydroxypyrrolidine-2-carboxamide], the 50% cytotoxic concentration (CC50) at 5 days in the data set “in vitro” is over 53000 nM. Besides, the inhibition at 2 µM with HIV-IIIb worked out at 0%.

The compound `CCOc1nn(CC(=O)N[C@@H](Cc2cc(F)cc(F)c2)c2ncccc2-c2ccc(F)c(C(N)=O)c2)c2c1CCCC2` [Example 179C, (S)-5-(2-(2-(3,5-difluorophenyl)-1-(2-(3-ethoxy-4,5,6,7-tetrahydro-1H-indazol-1-yl)acetamido)ethyl)pyridin-3-yl)-2-fluorobenzamide] came in with a CC50 at 5 days in the data set “in vitro” of 22300 nM. Further, the inhibition at 2 µM in the data set on HIV-IIIb was found to be 52%.

`NC(=O)c1cc(-c2cncnc2[C@H](Cc2cc(F)cc(F)c2)NC(=O)Cn2nc(C(F)F)c3c2C(F)(F)C2CC32)ccc1F` (stereo partly drawn) [Example 180, 5-(4-((1S)-1-(2-(3-(difluoromethyl)-5,5-difluoro-3b,4,4a,5-tetrahydro-1H-cyclopropa[3,4]cyclopenta[1,2-c]pyrazol-1-yl)acetamido)-2-(3,5-difluorophenyl)ethyl)pyrimidin-5-yl)-2-fluorobenzamide]: the CC50 at 5 days in “in vitro” was over 50400 nM. In addition, the inhibition at 2 µM in the data set with HIV-IIIb is 93%.

As a reminder, the CC50 is the concentration at which the toxic effect on the cells reaches its halfway point. As a reminder, the inhibition is the drop in the measured response relative to a control, in per cent.
